Results as given in US5607953A, “Butenoic or propenoic acid derivative” (Eisai Co., Ltd., priority 1988, dated 1997).

Experiments:
[1] = tested on: anesthetized thoracotomized dog; assay: Heart rate lowering and coronary bloodflow increasing effects upon anesthetized thoracotomized dog; type: in vivo; conditions: compounds of group (I), 0.3 mg/kg intravenous, anesthetized mongrel; for Coronary bloodflow (CBF): rate of increase in coronary bloodflow: left circumflex branch
Procedure: Heart Rate Lowering and Coronary Bloodflow Increasing Effects Upon Anesthetized Thoracotomized Dog
The chest of a grown-up mongrel was opened under enflurane inhalation anesthesia. The blood flow of the coronary artery was determined by setting a probe of an electromagnetic bloodflowmeter at its left circumflexbranch, while the heart rate was determined by triggering the wave form of the pressure in its left ventricle and counting it with a tachometer.
The intravenous administration of a test compound (in a dose of 0.3 mg per kg of the weight of the anesthetized mongrel) was carried out by using a catheter inserted into its femoral […].
The effect of increasing the bloodflow of the circumflex branch of the left coronary artery or the heart rate lowering effect was evaluated based on the difference between the bloodflow or the heart rate after the administration and that before the administration according to the following criteria.

[2] = Acute toxicity test (intravenous injection) using a mouse; conditions: in vivo
Text: The representative compounds of the present invention were examined by an ordinary acute toxicity test (intravenous injection) using a mouse to obtain the results shown in Table 4.

SMILES | Heart rate (HR): rate of reduction in heart rate [1] | Coronary bloodflow (CBF): rate of increase in coronary bloodflow [1] | LD50 [2] [mg/kg]
CN(CCCNC(=O)C/C=C/c1ccc(-n2ccnc2)cc1)CCc1ccc2c(c1)OCO2 [Compound K, (E)-N-[3-((N'-(2-(3,4-Methylenedioxyphenyl)-ethyl)-N'-methyl)amino)propyl]-4-(4-(1H-imidazol-1-yl)phenyl)-3-butenamide] | ++ (11-20%) | + (1-100%) | 
COc1ccc(CCN(C)CCCNC(=O)C/C=C/c2ccc(-n3cnc(C)c3)cc2)cc1OC [Compound L, (E)-N-[3-((N'-(2-(3,4-Dimethoxyphenyl)ethyl)-N'-methyl)amino)propyl]-4-(4-(4-methyl-1H-imidazol-1-yl)phenyl)-3-butenamide] | + (1-10%) | + (1-100%) | 92
COc1ccc(CCN(C)CCCNC(=O)C/C=C/c2ccc(-n3cncn3)cc2)cc1OC [Compound M, (E)-N-[3-((N'-(2-(3,4-Dimethoxyphenyl)ethyl)-N'-methyl)amino)propyl]-4-(4-(1H-1,2,4-triazol-1-yl)phenyl)-3-butenamide] | + (1-10%) | + (1-100%) | 120
